Experiments:
[1] = Tmax in male C57BL/6 mouse at 10 mg/kg, po measured after 24 hrs by UPLC/MS/MS analysis; assay type: ADME, organism-based; conditions: in vivo
[2] = AUC (0 to 24 hrs) in male C57BL/6 mouse at 10 mg/kg, po measured after 24 hrs by UPLC/MS/MS analysis; assay type: ADME, organism-based; conditions: in vivo
[3] = Cmax in male C57BL/6 mouse at 10 mg/kg, po measured after 24 hrs by UPLC/MS/MS analysis; assay type: ADME, organism-based; conditions: in vivo
Galectin-9 = Galectin-9 (Homo sapiens, UniProt O00182); assay: Inhibition of his-tagged N-terminal human Gal-9 preincubated for 30 mins followed by Biotin-ASF addition and measured after 1 hr by HTRF assay
Chain of Galectin-9 (O00182 whole entry): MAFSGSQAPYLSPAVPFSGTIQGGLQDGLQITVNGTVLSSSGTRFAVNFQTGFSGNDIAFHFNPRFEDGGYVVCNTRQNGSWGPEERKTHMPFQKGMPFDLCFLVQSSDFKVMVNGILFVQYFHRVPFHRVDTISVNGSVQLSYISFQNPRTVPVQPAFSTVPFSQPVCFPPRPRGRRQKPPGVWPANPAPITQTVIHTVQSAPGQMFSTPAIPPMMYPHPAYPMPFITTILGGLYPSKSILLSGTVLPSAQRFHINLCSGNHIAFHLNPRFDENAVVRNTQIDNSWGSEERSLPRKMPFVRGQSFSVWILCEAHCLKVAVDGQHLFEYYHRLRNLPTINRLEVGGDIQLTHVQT

Galectin-3 [4] = biological target: Galectin-3 (Mus musculus, UniProt P16110); assay: Inhibition of his-tagged N-terminal recombinant mouse Gal-3 preincubated for 30 mins followed by Biotin-ASF addition and measured after 1 hr by HTRF assay
Chain of Galectin-3 (Mus musculus, UniProt P16110) (P16110 whole entry): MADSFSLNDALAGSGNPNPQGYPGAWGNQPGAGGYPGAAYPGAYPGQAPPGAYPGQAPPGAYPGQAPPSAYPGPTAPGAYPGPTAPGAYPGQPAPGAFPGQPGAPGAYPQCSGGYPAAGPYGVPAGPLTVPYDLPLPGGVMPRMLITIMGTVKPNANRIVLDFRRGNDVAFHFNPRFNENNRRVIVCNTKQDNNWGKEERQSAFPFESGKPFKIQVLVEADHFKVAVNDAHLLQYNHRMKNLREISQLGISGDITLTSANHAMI

Galectin-1 = Galectin-1 (Homo sapiens, UniProt P09382); assay: Inhibition of his-tagged N-terminal human Gal-1 preincubated for 30 mins followed by Biotin-ASF addition and measured after 1 hr by HTRF assay
Chain of Galectin-1 (P09382 whole entry): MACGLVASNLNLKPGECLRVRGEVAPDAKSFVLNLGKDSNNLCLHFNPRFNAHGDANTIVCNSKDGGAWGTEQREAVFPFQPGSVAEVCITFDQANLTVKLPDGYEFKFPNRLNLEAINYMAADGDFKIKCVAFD

[5] = Permeability of the compound at pH 5.5 incubated for 4 hrs by PAMPA; assay type: ADME; conditions: for Papp at 4 h: PAMPA, pH 5.5, read-out: permeability
[6] = Permeability of the compound at pH 7.4 incubated for 4 hrs by PAMPA; assay type: ADME; conditions: for Papp at 4 h: PAMPA, pH 7.4, read-out: permeability; for permeability: pampa, pH 7.4, 4 h
Galectin-3 [7] = biological target: Galectin-3 (Homo sapiens, UniProt P17931); assay: Inhibition of his-tagged N-terminal recombinant human Gal-3 preincubated for 30 mins followed by Biotin-ASF addition and measured after 1 hr by HTRF assay
Chain of Galectin-3 (Homo sapiens, UniProt P17931) (P17931 whole entry): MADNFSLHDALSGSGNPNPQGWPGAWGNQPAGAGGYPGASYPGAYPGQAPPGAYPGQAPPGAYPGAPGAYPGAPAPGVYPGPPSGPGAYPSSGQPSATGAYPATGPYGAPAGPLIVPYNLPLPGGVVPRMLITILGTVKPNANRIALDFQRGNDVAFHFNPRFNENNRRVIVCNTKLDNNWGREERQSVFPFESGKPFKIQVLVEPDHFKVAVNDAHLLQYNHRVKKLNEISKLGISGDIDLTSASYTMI

[8] = Permeability of the compound in human Caco-2 cells across apical to basolateral side at pH 7.4 incubated for 2 hrs by LC-MS/MS analysis; assay type: ADME, cell-based; conditions: Caco-2, pH 7.4, read-out: permeability
[9] = Permeability of the compound across basolateral to apical side in human Caco-2 cells assessed as drug recovery at pH 7.4 incubated for 2 hrs by LC-MS/MS analysis; assay type: ADME, cell-based; conditions: Caco-2, pH 7.4, read-out: Drug recovery
[10] = Permeability of the compound in human Caco-2 cells across basolateral to apical side at pH 7.4 incubated for 2 hrs by LC-MS/MS analysis; assay type: ADME, cell-based; conditions: Caco-2, pH 7.4, read-out: permeability
[11] = Permeability of the compound across apical to basolateral side in human Caco-2 cells assessed as drug recovery at pH 7.4 incubated for 2 hrs by LC-MS/MS analysis; assay type: ADME, cell-based; conditions: Caco-2, pH 7.4, read-out: Drug recovery

| Compound | IC50 (Galectin-3 [4]) | Papp at 4 h [5] | Papp at 4 h [6] | IC50 (Galectin-3 [7]) | further results |
| --- | --- | --- | --- | --- | --- |
| OC[C@H]1O[C@H](Sc2ccc(Cl)c(Cl)c2)[C@H](O)[C@@H](n2cc(-c3cc(F)c(F)c(F)c3)nn2)[C@H]1O |  |  |  |  | Tmax [1]: 7 h; AUC(0-t) at 24 h [2]: 84 µM·h; Cmax [3]: 6300 nM |
| Cc1nc([C@@H]2O[C@H](CO)[C@H](O)[C@H](n3cc(-c4cc(F)c(Cl)c(F)c4)nn3)[C@H]2O)n(-c2cc(Cl)ccc2C(F)(F)F)n1 |  |  |  |  | Tmax [1]: 3 h |
| CO[C@@H]1[C@@H](n2cc(-c3cc(F)c(Cl)c(F)c3)nn2)[C@@H](O)[C@@H](CO)O[C@H]1c1nncn1-c1cc(Cl)ccc1C(F)(F)F | 160 nM |  |  |  | IC50 (Galectin-9): 7000 nM; IC50 (Galectin-1): 7000 nM |
| CO[C@@H]1[C@@H](n2cc(-c3ccc(Cl)c(F)c3F)nn2)[C@@H](O)[C@@H](CO)O[C@H]1c1nncn1-c1cc(Cl)ccc1OC(F)(F)F | 100 nM | 54 ×10⁻⁶ cm/s | 49 ×10⁻⁶ cm/s |  | IC50 (Galectin-9): 2400 nM; Tmax [1]: 3 h; AUC(0-t) at 24 h [2]: 16 µM·h; Cmax [3]: 3000 nM; IC50 (Galectin-1): 2000 nM |
| OC[C@H]1O[C@@H](c2nncn2-c2cc(Cl)ccc2C(F)(F)F)[C@H](OCC(F)(F)C(F)F)[C@@H](n2cc(-c3ccc(Br)c(F)c3F)nn2)[C@H]1O | 110 nM | 68 ×10⁻⁶ cm/s | 88 ×10⁻⁶ cm/s |  |  |
| OC[C@H]1O[C@@H](c2nncn2-c2cc(Cl)ccc2Cl)[C@H](O)[C@@H](n2cc(-c3cc(F)c(Cl)c(F)c3)nn2)[C@H]1O | 350 nM | 3.6 ×10⁻⁶ cm/s | 1.7 ×10⁻⁶ cm/s |  |  |
| OC[C@H]1O[C@@H](c2nncn2-c2cc(Cl)ccc2OC(F)(F)F)[C@H](O)[C@@H](n2cc(-c3ccc(Cl)c(F)c3F)nn2)[C@H]1O | 100 nM |  | 27 ×10⁻⁶ cm/s | 13 nM |  |
| OC[C@H]1O[C@@H](c2nncn2-c2cc(Cl)ccc2C(F)(F)F)[C@H](O)[C@@H](n2cc(-c3ccc(Cl)c(F)c3)nn2)[C@H]1O | 100 nM | 1.8 ×10⁻⁶ cm/s | 2.1 ×10⁻⁶ cm/s |  |  |
| OC[C@H]1O[C@@H](c2ncnn2-c2ccc(Cl)c(Cl)c2)[C@H](O)[C@@H](n2cc(-c3cc(F)c(F)c(F)c3)nn2)[C@H]1O |  |  |  |  | Tmax [1]: 3 h; AUC(0-t) at 24 h [2]: 1.8 µM·h; Cmax [3]: 410 nM |
| Cc1nnc([C@@H]2O[C@H](CO)[C@H](O)[C@H](n3cc(-c4cc(F)c(Cl)c(F)c4)nn3)[C@H]2O)n1-c1cc(Cl)ccc1C(F)(F)F (stereo in doubt; 5) | 7000 nM |  |  | 1300 nM | permeability ([6]; 4 h): 1.6 ×10⁻⁶ cm/s |
| OC[C@H]1O[C@@H](c2n[nH]c(=S)n2-c2cc(Cl)ccc2OC(F)(F)F)[C@H](O)[C@@H](n2cc(-c3ccc(Cl)c(F)c3F)nn2)[C@H]1O (stereo in doubt; 17) | 720 nM |  |  | 70 nM | permeability [6]: 0.2 ×10⁻⁶ cm/s |
| OC[C@H]1O[C@@H](c2n[nH]c(=S)n2-c2cc(Cl)ccc2C(F)(F)F)[C@H](O)[C@@H](n2cc(-c3ccc(Br)c(F)c3F)nn2)[C@H]1O (stereo in doubt; 19) | 1000 nM |  |  | 76 nM | permeability ([6]; 4 h): 0.2 ×10⁻⁶ cm/s |
| Cn1nc([C@@H]2O[C@H](CO)[C@H](O)[C@H](n3cc(-c4ccc(Br)c(F)c4F)nn3)[C@H]2O)n(-c2cc(Cl)ccc2C(F)(F)F)c1=S (stereo in doubt; 21) | 3800 nM |  |  |  | permeability ([5]; pampa, pH 5.5, 4 h, 4 h): 22 ×10⁻⁶ cm/s; permeability ([6]; 4 h): 28 ×10⁻⁶ cm/s |

Second part, led by results:

| IC50 (Galectin-3 [4]) | Papp at 4 h [5] | Papp at 4 h [6] | IC50 (Galectin-3 [7]) | Compound | further results |
| --- | --- | --- | --- | --- | --- |
| 62 nM | 21 ×10⁻⁶ cm/s | 18 ×10⁻⁶ cm/s |  | OC[C@H]1O[C@@H](c2nncn2-c2cc(Cl)ccc2OC(F)(F)F)[C@H](O)[C@@H](n2cc(-c3ccc(Br)c(F)c3F)nn2)[C@H]1O |  |
| 69 nM | 7 ×10⁻⁶ cm/s | 7 ×10⁻⁶ cm/s |  | OC[C@H]1O[C@@H](c2nncn2-c2cc(Cl)ccc2C(F)(F)F)[C@H](O)[C@@H](n2cc(-c3ccc(Br)c(F)c3F)nn2)[C@H]1O |  |
| 52 nM | 33 ×10⁻⁶ cm/s | 28 ×10⁻⁶ cm/s | 9 nM | CO[C@@H]1[C@@H](n2cc(-c3ccc(Br)c(F)c3F)nn2)[C@@H](O)[C@@H](CO)O[C@H]1c1nncn1-c1cc(Cl)ccc1C(F)(F)F |  |
| 71 nM | 20 ×10⁻⁶ cm/s | 22 ×10⁻⁶ cm/s | 22 nM | CO[C@@H]1[C@@H](n2cc(-c3ccc(Br)c(F)c3)nn2)[C@@H](O)[C@@H](CO)O[C@H]1c1nncn1-c1cc(Cl)ccc1C(F)(F)F |  |
| 67 nM |  |  |  | Cc1nnc([C@@H]2O[C@H](CO)[C@H](O)[C@H](n3cc(-c4cc(F)c(Cl)c(F)c4)nn3)[C@H]2O)n1-c1cc(Cl)ccc1C(F)(F)F (stereo in doubt; 4) | IC50 (Galectin-9): 4000 nM; permeability ([6]; 4 h): 4.4 ×10⁻⁶ cm/s; IC50 (Galectin-1): 2500 nM |
| 50 nM | 1.1 ×10⁻⁶ cm/s | 0.2 ×10⁻⁶ cm/s | 7 nM | OC[C@H]1O[C@@H](c2n[nH]c(=S)n2-c2cc(Cl)ccc2OC(F)(F)F)[C@H](O)[C@@H](n2cc(-c3ccc(Cl)c(F)c3F)nn2)[C@H]1O (stereo in doubt; 16) | Papp A→B at 2 h [8]: < 1.5 ×10⁻⁶ cm/s; recovery at 2 h [9]: 81%; Papp B→A at 2 h [10]: 3.2 ×10⁻⁶ cm/s; recovery at 2 h [11]: 67% |
| 25 nM |  | 0.1 ×10⁻⁶ cm/s | 6.9 nM | OC[C@H]1O[C@@H](c2n[nH]c(=S)n2-c2cc(Cl)ccc2C(F)(F)F)[C@H](O)[C@@H](n2cc(-c3ccc(Br)c(F)c3F)nn2)[C@H]1O (stereo in doubt; 18) |  |
| 40 nM | 12 ×10⁻⁶ cm/s |  |  | Cn1nc([C@@H]2O[C@H](CO)[C@H](O)[C@H](n3cc(-c4ccc(Br)c(F)c4F)nn3)[C@H]2O)n(-c2cc(Cl)ccc2C(F)(F)F)c1=S (stereo in doubt; 20) | IC50 (Galectin-9): 7200 nM; Papp A→B at 2 h [8]: < 1.5 ×10⁻⁶ cm/s; recovery at 2 h [9]: 80%; Tmax [1]: 3 h; Papp B→A at 2 h [10]: 15 ×10⁻⁶ cm/s; AUC(0-t) at 24 h [2]: 12 µM·h; Cmax [3]: 1900 nM; permeability ([6]; 4 h): 8.6 ×10⁻⁶ cm/s; recovery at 2 h [11]: 59%; IC50 (Galectin-1): 2400 nM |

Reference: ChEMBL document CHEMBL5576131, “Atropisomerism Observed in Galactose-Based Monosaccharide Inhibitors of Galectin-3 Comprising 2-Methyl-4-phenyl-2,4-dihydro-3H-1,2,4-triazole-3-thione” (J Med Chem, 2024)
